Reference: the NIST ThermoML archive (doi:10.1021/je200707b)

Legend:
[1] = xn = mol fraction of the nth substance listed; details: 101.3 kPa, Liquid; for viscosity: Falling or rolling sphere viscometry; for mass density: Vibrating tube method
[2] = refractive index (Na D-line) (dimensionless); xn = mol fraction of the nth substance listed; details: 298.15 K, 101.3 kPa, Liquid, Standard Abbe refractometry

CC(=O)O.CCCCN [butylammonium acetate] + CCCCO
[1]
Details | mass density, 293.15 K [kg/m3] | mass density, 298.15 K [kg/m3] | mass density, 303.15 K [kg/m3] | mass density, 308.15 K [kg/m3] | mass density, 313.15 K [kg/m3] | viscosity, 293.15 K [mPa·s] | viscosity, 298.15 K [mPa·s] | viscosity, 303.15 K [mPa·s] | viscosity, 308.15 K [mPa·s] | viscosity, 313.15 K [mPa·s]
x1 = 0.029 | 817.08 | 813.28 | 809.45 | 805.57 | 801.67 | 3.564 | 3.19 | 2.787 | 2.455 | 2.164
x1 = 0.0583 | 824.15 | 820.36 | 816.55 | 812.7 | 808.82 | 4.397 | 3.806 | 3.318 | 2.908 | 2.592
x1 = 0.1003 | 833.62 | 829.88 | 826.11 | 822.23 | 818.46 | 5.588 | 4.823 | 4.165 | 3.636 | 3.17
x1 = 0.1981 | 853.55 | 849.9 | 846.22 | 842.52 | 838.78 | 9.789 | 8.389 | 7.151 | 6.123 | 5.297
x1 = 0.2981 | 871.49 | 867.92 | 864.33 | 860.72 | 857.08 | 17.14 | 14.41 | 12.18 | 10.39 | 8.894
x1 = 0.399 | 887.71 | 884.21 | 880.69 | 877.17 | 873.62 | 28.33 | 23.48 | 19.6 | 16.5 | 14
x1 = 0.497 | 901.99 | 898.53 | 895.09 | 891.62 | 888.15 | 50.23 | 41.01 | 33.21 | 28.45 | 23.98
x1 = 0.6489 | 921.84 | 918.48 | 915.12 | 911.75 | 908.37 | 107.74 | 86.03 | 69.14 | 56.31 | 45.89
x1 = 0.7984 | 939.21 | 935.95 | 932.68 | 929.4 | 926.1 | 225.04 | 170.61 | 138.1 | 109.79 | 87.65
x1 = 0.9003 | 949.8 | 946.58 | 943.37 | 940.16 | 936.93 | 389.54 | 287.99 | 216.86 | 167.15 | 129.84

[2]
Details | refractive index
x1 = 0.029 | 1.3999
x1 = 0.0583 | 1.4023
x1 = 0.1003 | 1.4053
x1 = 0.1981 | 1.4115
x1 = 0.2981 | 1.417
x1 = 0.399 | 1.4217
x1 = 0.497 | 1.4256
x1 = 0.6489 | 1.4314
x1 = 0.7984 | 1.4366
x1 = 0.9003 | 1.4399

CC(=O)O.CCCCN [butylammonium acetate] + CCCO
[1]
Details | mass density, 293.15 K [kg/m3] | mass density, 298.15 K [kg/m3] | mass density, 303.15 K [kg/m3] | mass density, 308.15 K [kg/m3] | mass density, 313.15 K [kg/m3] | viscosity, 293.15 K [mPa·s] | viscosity, 298.15 K [mPa·s] | viscosity, 303.15 K [mPa·s] | viscosity, 308.15 K [mPa·s] | viscosity, 313.15 K [mPa·s]
x1 = 0.0315 | 814.1 | 810.13 | 806.12 | 802.09 | 798.01 | 2.862 | 2.496 | 2.202 | 1.955 | 1.672
x1 = 0.0601 | 822.82 | 818.91 | 814.95 | 810.95 | 806.91 | 3.515 | 3.158 | 2.773 | 2.447 | 2.167
x1 = 0.0977 | 833.38 | 829.52 | 825.63 | 821.7 | 817.72 | 4.733 | 4.116 | 3.595 | 3.157 | 2.828
x1 = 0.198 | 857.48 | 853.76 | 850 | 846.22 | 842.42 | 8.602 | 7.371 | 6.367 | 5.493 | 4.77
x1 = 0.3002 | 877.71 | 874.1 | 870.46 | 866.8 | 863.11 | 17.5 | 14.77 | 12.51 | 10.66 | 9.154
x1 = 0.4021 | 894.7 | 891.19 | 887.65 | 884.1 | 880.52 | 31.54 | 26.08 | 22.23 | 18.48 | 15.72
x1 = 0.497 | 908.39 | 904.94 | 901.48 | 898.01 | 894.53 | 47.48 | 38.69 | 31.74 | 26.4 | 22.13
x1 = 0.6487 | 927.09 | 923.74 | 920.37 | 917 | 913.6 | 108.49 | 87.22 | 70.42 | 56.62 | 46.76
x1 = 0.799 | 942.52 | 939.27 | 936.01 | 932.73 | 929.43 | 244.69 | 186.83 | 148.78 | 116.88 | 93.14
x1 = 0.8981 | 951.47 | 948.25 | 945.03 | 941.83 | 938.61 | 445.2 | 326.53 | 244.83 | 186.41 | 144.84

[2]
Details | refractive index
x1 = 0.0315 | 1.3875
x1 = 0.0601 | 1.3912
x1 = 0.0977 | 1.3953
x1 = 0.198 | 1.4045
x1 = 0.3002 | 1.4122
x1 = 0.4021 | 1.4185
x1 = 0.497 | 1.4236
x1 = 0.6487 | 1.4305
x1 = 0.799 | 1.4362
x1 = 0.8981 | 1.4395
